One block for each molecule: values may come before it.
Key:
[1] = target: Flag-Id2; assay: cell-based or functional assay
[2] = tested on: Flag-Id2 in SK-N-SH cells; assay: Quantitative analysis of subcellular localization of Flag-Id2 after RA (double immunofluorescence); assay type: cell-based, human; details: 48 h, SK-N-SH expressing Flag-Id2, three independent experiments
Method: Quantitative Analysis of Subcellular Localization of Id2 and siRNA Experiments: SK-N-SH-Flag-Id2 cells untreated or treated with RA for 48 h were fixed in 4% paraformaldehyde. Flag-Id2 and endogenous ENH were immunostained by using Flag-M2 (Sigma) and ENH antibodies, respectively. SK-N-SH cells were transfected with vector or p3XFlag-ENH and immunostained by using Flag-M2 and Id2 (Zymed) antibodies. For silencing of ENH, ENH siRNA (siGenome Smartpool reagent M-006930-00) and control, nontargeting (siGenome Smartpool reagent D-001206-13) siRNA mixtures were purchased from Dharmacon. SK-N-SH cells stably expressing Flag-Id2 were treated with vehicle control or RA for 48 h and transfected with 60 nM siRNAs by using Lipofectamine 2000 (Invitrogen). Thirty-six hours after transfection cells were fixed in 4% paraformaldehyde and immunostained by using Flag-M2 antibodies. Parallel cultures were analyzed by Western blot. Secondary antibodies were FITC- or Cy3-conjugated anti-rabbit and Cy3-conjugated anti-mouse (Jackson ImmunoResearch). Nuclei were counterstained with DAPI. Slides were mounted in 90% glycerol in PBS and analyzed on an Olympus epifluorescence microscope. The percentage of cells displaying Id2 staining in the nucleus was scored by counting at least 500 cells from triplicate samples. […]

[3] = tested on: SH-N and SH-F cells; assay: Cell-cycle exit of neuroblastoma cells treated with RA; assay type: cell-based, human; details: RA 0.1 μM
Source text: Human neuroblastoma cells are frequently used as in vitro models to recapitulate differentiation of the nervous system. To ask whether ENH expression is regulated during differentiation of the nervous system, clonal derivatives of the human neuroblastoma cell line SK-N-SH, the SK-N-SH-N (SH-N) and SK-N-SH-F (SH-F) cells were used. These cells, which lack N-myc gene amplification, have been used to characterize the cell-cycle exit associated with differentiation of neural cells. When treated with a low concentration of RA (0.1 μM) SH-N cells undergo differentiation along the neuronal lineage, whereas SH-F cells acquire an epithelioid morphology and rapidly enter into a senescent-like state. Both cell types arrest in the G1 phase of the cell cycle within 48 h of treatment with RA. […] Although higher concentrations of RA led to marked inhibition of N-myc and Id2 gene expression in N-myc-amplified neuroblastoma cells, it was noted that RA at the concentration of 0.1 μM caused little change of Id2 expression in the SK-N-SH derivatives. However, a late decrease of Id2 protein was evident in RA-treated SH-N cells (FIG. 3D).

[4] = target: T1, full length Id2 as bait (entire coding sequence of human Id2 in bait plasmid pDBLeu) (human, UniProt Q02363 1-134); assay: yeast two-hybrid screen of a human fetal brain cDNA library
T1 construct: Yeast two-hybrid bait (Proquest system, pDBLeu); also called Id2 bait
T1 sequence (looked up): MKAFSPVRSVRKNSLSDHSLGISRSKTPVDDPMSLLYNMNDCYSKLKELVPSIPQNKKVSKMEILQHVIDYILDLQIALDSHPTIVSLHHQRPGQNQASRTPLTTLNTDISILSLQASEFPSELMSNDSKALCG
Method: Yeast Two-Hybrid Screening: The Proquest system (Invitrogen Life Technologies, Carlsbad, Calif.) was used for yeast two-hybrid screening. The entire coding sequence of human Id2 was subcloned into the bait plasmid pDBLeu. A human fetal brain cDNA library in pPC86 was transformed into MaV203 yeast cells and screened for interactors with the bait plasmid according to the manufacturer's protocol.
To identify new interactors of Id2 from the nervous system, a yeast two-hybrid screen was conducted with a human fetal brain cDNA library using full length Id2 as bait. This screen yielded 47 validated cDNA clones corresponding to four different Id2-associated proteins. Among them, 24 clones code for Id2, 13 clones code for the bHLH transcription factor E2-2, eight clones code for the bHLH transcription factor HEB, and two clones code for the PDZ-LIM protein ENH. All Id2 and bHLH clones retain an intact HLH domain. This finding is consistent with the essential role of the HLH domain for heterodimerization. The presence of endogenous Id2 is explained by the strong homodimerization ability of Id2 and its abundant expression in the fetal brain.

percentage of cells with cytoplasmic Flag-Id2 after RA treatment (double immunofluorescence) [1]: 60%
Molecule: endogenous ENH from RA-treated SK-N-SH neuroblastoma cells (from UniProt Q96HC4 2-596)

Molecule: CC1=C(/C=C/C(C)=C/C=C/C(C)=C/C(=O)O)C(C)(C)CCC1 [RA, retinoic acid]
cells with Flag-Id2 relocated to the cytoplasm ([2]; ENH positive cells after RA): ~60% | cells with Flag-Id2 relocated to the cytoplasm ([2]; ENH-negative cells after RA): 10% | time to arrest in the G1 phase of the cell cycle [3]: ≤ 48 h

binding result [4]: binds
B1: C-terminal fragment of ENH (amino acids 461-596) of the two two-hybrid clones (other)
chain: EKGALYCELCYEKFFAPECGRCQRKILGEVINALKQTWHVSCFVCVACGKPIRNNVFHLEDGEPYCETDYYALFGTICHGCEFPIEAGDMFLEALGYTWHDTCFVCSVCCESLEGQTFFSKKDKPLCKKHAHSVNF
notes: Prey clones from a human fetal brain cDNA library in pPC86; also called ENH clones

— patent US20070041944A1, “Treating tumors by ENH dislocation of ID proteins” (THE TRUSTEES OF COLUMBIA UNIVERSITY IN THE CITY OF NEW YORK, priority 2005, published 2007)
